Test results: patent US20260335282A1, “NOVEL 3-ARYLIDENE-2-INDOLINONE DERIVATIVES FOR THERAPEUTIC USE” (ISTANBUL UNIVERSITESI REKTORLUGU, priority 2022, published 2026)
Where two headings read alike, the source gives them in different places.

Experiments:
A549 cells = assay: MTT cytotoxicity, lung cancer cells A549; assay type: cell-based, human
Summary of the method: (§1)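 Viability was quantified by MTT reduction following 48 and/or 72 h compound exposure at four concentrations (0.1, 1, 5, 10 μM). Values are percentages of DMSO-treated controls, with IC50 fitted from dose-response data.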

HT-29 cells = assay: MTT cytotoxicity, colon cancer cells HT-29; assay type: cell-based, human; details: for IC50: MTT
Summary of the method: (§2)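 Cells were seeded at 5000 per well and treated next day with compound at 0.1, 1, 5 and 10 μM (final) for 48 and/or 72 h, with matched DMSO controls. MTT was added for 4 h and formazan was dissolved in DMSO and read at 570/630 nm. % viability against control gave IC50 from dose-response curves.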

[1] = test system: general tyrosine kinase activity in HCT116 colon cancer cells; assay: General tyrosine kinase activity (ELISA) in HCT-116 cells; assay type: cell-based, human; details: 72 hours, IC50 concentration
Procedure: (§3) Takara Universal Tyrosine Kinase Assay Kit is used to determine the effects of 11 2-indolinone compounds (Y1, Y2, Y3, Y4, Y5, Y8, […], […], Y21, Y23, 20C, 22C) on general tyrosine kinase activity in cancer cells. Cells are seeded in 6-well plates (4.10^5 cells/well) and the IC50 concentration of each selected molecule is performed to the cells for 48 or 72 hours. Cells in the control group are incubated with medium only. At the end of the incubation period, the cells in each well are washed with PBS and cells are removed from the wells using a cell scraper via 1 ml of the extraction buffer in the kit. The cell lysate is transferred to ependorf tubes and centrifuged at 10.000 g for 10 minutes at +4° C. and the supernatant is used as a sample for activity determination. […] The reaction is finished by adding 100 μl of stop solution to each well and the optical density in each well is measured at 405 nm with a microplate reader (BioTek, USA). The tyrosine kinase activity in each sample is calculated from the standard curve obtained from the absorbance values of the standard solutions with the kit (Chan W Y, Lau P M, Yeung K W, Kong S K. The second generation tyrosine kinase inhibitor dasatinib induced eryptosis in human erythrocytes—An in vitro study. Toxicol Lett. 2018; 295:10-21). […]

MCF-10F/Beas2b cells = assay: MTT cytotoxicity, healthy cells MCF-10F/Beas2b; assay type: cell-based, human; details: for Selectivite Index, MCF-10F/Beas2b (Table 2): MCF-10F/Beas2b vs colon or pancreas cancer cells; for Selectivite Index, MCF-10F/Beas2b (Table 2) / Selectivite Index (SI), MCF-10F/Beas2b (Table 1): cancer line not given; for Selectivite Index (SI), MCF-10F/Beas2b (Table 1): MCF-10F/Beas2b vs breast or kidney cancer cells
Summary of the method: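 Following seeding and next-day dosing at 0.1, 1, 5 and 10 μM, plates incubate 48 and/or 72 h. MTT is then applied for 4 h and dissolved crystals measured at 570 nm (630 nm reference); cell-free compound+MTT wells control for interference, and IC50 is calculated per compound.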

HUVEC cells = assay: MTT cytotoxicity, healthy cells HUVEC; assay type: cell-based, human; details: for Selectivite Index, HUVEC (Table 2): HUVEC vs colon or pancreas cancer cells; for Selectivite Index, HUVEC (Table 2) / Selectivite Index (SI), HUVEC (Table 1): cancer line not given; for IC50: MTT; for Selectivite Index (SI), HUVEC (Table 1): HUVEC vs breast or kidney cancer cells
Summary of the method: as §1

MDA-MB-231 cells = assay: MTT cytotoxicity, breast cancer cells MDA-MB-231; assay type: cell-based, human; details: for IC50: MTT, no * mark (incubation time not given)
Summary of the method: as §1

CAKI-1 cells = assay: MTT cytotoxicity, kidney cancer cells CAKI-1; assay type: cell-based, human
Summary of the method: as §1

MCF-7 cells = assay: MTT cytotoxicity, breast cancer cells MCF-7; assay type: cell-based, human; details: MTT
Summary of the method: as §1

HCT-116 cells = assay: MTT cytotoxicity, colon cancer cells HCT-116; assay type: cell-based, human
Summary of the method: as §2

A498 cells [2] = assay: MTT cytotoxicity, kidney cancer cells A498; assay type: cell-based, human; details: for IC50: MTT
Summary of the method: as §1

MIAPaCa-2 cells [3] = assay: MTT cytotoxicity, pancreas cancer cells MIAPaCa-2; assay type: cell-based, human
Summary of the method: as §2

human cancer cells = assay: MTT cell viability, human cancer cells overall; assay type: cell-based; details: cell line as discussed at the place
From the text: The cytotoxicity, general tyrosine kinase inhibitory effects and cell death (apoptosis/necrosis) assays of 1-benzyl-3-(1H-indol-3-ylmethylidene)-1,3-dihydro-2H-indol-2-one derivatives (Formula 5) of the present invention are studied by the following methods. […] HUVEC (human umbilical vein endothelial cell), MCF-10F (human breast epithelial cell) and Beas2b (human lung bronchial epithelial cell) cell lines have been used as healthy control cells in MTT experiments.
Beas2b (human lung bronchiole epithelial cell) and HEK293 (renal tubule epithelium) cells used as normal cell lines were cultured in RPMI medium, and HUVEC (human umbilical cord endothelial cells) and MCF-10F (human breast epithelial cell) cells are cultured in DMEM medium containing 100 µg/ml penicillin/streptomycin. The cells, which covered 70% of the culture flask, are washed with phosphate buffer and then removed from the surface of the flask by application of trypsin-ethylenediamine tetraacetic acid (Trypsin-EDTA; 0.25%) solution, passaged, counted and seeded on appropriate plates before each experiment. Cells are treated with a total of 45 2-indolinone compounds (5) at concentrations of 0.1, 1, 5 and 10 μM. Stock compounds are prepared in 1 ml dimethylsulfoxide (DMSO) and 4 different dilutions were prepared with medium and performed to the cells. Control group cells are treated with DMSO at a similar concentration to the experimental groups.
MTT (3-(4,5-dimethylthiazol-2-yl)-2,5-diphenyl-2H-tetrazolium bromide) colorimetric assay provides quantitation of viable cells with ongoing mitochondrial activity in culture medium. According to the standard procedure in cell culture conditions, cells are maintained in RPMI-1640 and DMEM culture media containing 10% FBS and 1% penicillin/streptomycin. The trypan blue test is used for cell counts.
The effects of 45 2-indolinone compounds (5) on cell viability in all cancer cell lines are investigated by MTT assay. Cells are seeded in a 96-well flat bottom plate with 5000 cells in each well and 2-indolinone compounds (5) at concentrations of 0.1, 1, 5 and 10 μM are performed to the cells the next day. After 48 and/or 72 hours following treatment with 2-indolinone compounds, 50 μl of the supernatant is slowly discarded (as it was acid medium) and MTT at a concentration of 5 mg/ml is added to each well in a volume of 10 μl. After incubation for 4 hours, the formazan crystals formed in the wells are dissolved by adding 100 μl DMSO and the optical density is read at 570 nm test wavelength and 630 nm reference wavelength. Cell viability is expressed as % cell viability by comparing the absorbance of control and test wells. IC50 value is calculated from the dose-response curves prepared for each compound. In addition, the possible DMSO effect is eliminated by preparing negative control wells compatible with the amount of DMSO contained in the compounds. To understand the reaction of the compounds with MTT, cell-free (MTT+compounds) negative controls are prepared at the concentrations used (Mosmann, 1983). […] The absorbance values obtained are compared to the control and statistically evaluated by unpaired t-test using “Graphpad Prism 5.04” software. “P<0.05” is accepted as significant. When evaluating cytotoxic effects, the present inventors aim for the inventive compounds to be effective in cancer cells and ineffective in healthy cells. […]

FGFR1 = details: Liang et al. 2012; cited from earlier work
MIAPaCa-2 cells [4] = assay: Apoptosis/necrosis detection, Annexin V/PI flow cytometry, MiaPaca-2; assay type: cell-based, human
Procedure: (§4) After incubation with 2-indolinone compounds (IC50 μM concentration; 48 and/or 72 hours), cells are washed twice with PBS and the cell pellet is suspended in Annexin V binding buffer. After this incubation, cells are incubated with FITC-conjugated Annexin V and propidium iodine staining solution for 15 minutes in the dark and at room temperature. Then, cells are analyzed by flow cytometry (Beckman coulter, Navios) (Wlodkowic, D., Skommer, J, Darzynkiewicz, Z. 2009. Flow cytometry-based apoptosis detection, Methods Mol Biol., 559, 1-14).

A498 cells [5] = assay: Apoptosis/necrosis detection, Annexin V/PI flow cytometry, A498; assay type: cell-based, human; details: A498
Procedure: as §4

[6] = test system: general tyrosine kinase activity in A498 kidney cancer cells; assay: General tyrosine kinase activity (ELISA) in A498 cells; assay type: cell-based, human; details: 72 h, IC50 concentration
Procedure: as §3, with “determination. After the extracts obtained from the control and experimental groups are diluted 1:25, 40 μl extracts is transferred to two wells in the 96-well plate in the kit. In addition, the standard solution in the kit is diluted according to the kit instructions and each concentration is transferred 40 μl into three wells. 10 μl of 40 mM ATP-2Na solution is added to all wells and the plate is incubated at 37° C. for 30 minutes.” for “determination.”
The effects of 11 2-indolinone compounds (Y1, Y2, Y3, Y4, Y5, Y8, Y14, Y21, Y23, 20C and 22C) having the structure of formula (5), which are prominent with their cytotoxicity in A498, MIAPaCa-2 and HCT-116 cancer cell lines and nontoxic properties in healthy cells, on general tyrosine kinase activity in cancer cells are determined.

[7] = no * mark (incubation time not specified)
[8] = read-out: IC50, MDA-MB-231 (breast)
[9] = *: effective 72 hours after incubation
[10] = MTT, no * mark (incubation time not specified)

Compound | IC50 (A549 cells; [7]) | IC50 (HT-29 cells; [7]) | Selectivite Index, MCF-10F/Beas2b (Table 2) (MCF-10F/Beas2b cells) | Selectivite Index, HUVEC (Table 2) (HUVEC cells) | IC50 (HUVEC cells; [7]) | IC50 (MDA-MB-231 cells; [8]) | IC50 (MCF-7 cells; [7]) | IC50 (HCT-116 cells; [7]) | IC50 (MIAPaCa-2 cells [3]; [10]) | Selectivite Index (SI), MCF-10F/Beas2b (Table 1) (MCF-10F/Beas2b cells) | Selectivite Index (SI), HUVEC (Table 1) (HUVEC cells) | potency/selectivity compared with sunitinib malate (human cancer cells) | IC50 (CAKI-1 cells; [7]) | IC50 (A498 cells [2]; [7]) | other results
Cc1cccc(CN2C(=O)/C(=C\c3c[nH]c4ccccc34)c3cc(Cl)ccc32)c1 [20C] | 4.04 µM | 1.16 µM | 13.63 | 5.63 | 1.52 µM | > 10 µM | > 10 µM | 0.27 µM | 1.39 µM |  |  |  |  |  | tyrosine kinase activity compared to control [1]: did not cause a significant change; IC50 (MCF-10F/Beas2b cells; MTT, *: effective 72 hours after incubation): 3.68 µM; IC50 (CAKI-1 cells; [9]): 6.19 µM; IC50 (A498 cells [2]; [9]): 0.97 µM
Cc1cccc(CN2C(=O)/C(=C\c3c[nH]c4ccccc34)c3cccc(Cl)c32)c1 [27C] | > 10 µM | > 10 µM |  |  |  | 0.81 µM | 3.67 µM | > 10 µM | > 10 µM | > 12.34 | 1.28 | much more potent and have higher SI values than the reference compound sunitinib malate | > 10 µM | 2.4 µM | IC50 (HUVEC cells; [9]): 1.04 µM; selectivity index (SI) (MDA-MB-231 cells; MCF-10F vs MDA-MB-231): > 12
O=C1/C(=C\c2c[nH]c3ccccc23)c2ccccc2N1Cc1cccc(F)c1 [51C] | > 10 µM | 0.93 µM | > 10.75 | 6.13 | 5.7 µM | > 10 µM | > 10 µM | 1.13 µM | 5.2 µM |  |  | more potent and selective than Sunitinib malate | > 10 µM | 6.22 µM | selectivity index (HT-29 cells; MCF-10F/Beas2b vs HT-29): > 11
Cc1c[nH]c(/C=C2\C(=O)Nc3ccccc32)c1CCC(=O)O [SU5402, 3-[4-methyl-2-[(Z)-(2-oxo-1H-indol-3-ylidene)methyl]-1H-pyrrol-3-yl]propanoic acid] |  |  |  |  |  |  |  |  |  |  |  |  |  |  | inhibitory activity against FGFR1 vs SU4984 (FGFR1): better inhibitory activity against FGFR1 than SU4984
CCN(CC)CCNC(=O)c1c(C)[nH]c(/C=C2\C(=O)Nc3ccc(F)cc32)c1C [Sunitinib malate, reference compound] |  |  |  |  |  |  |  |  | 1.18 µM |  |  |  |  | 3.71 µM | IC50 (A549 cells; Homo sapiens, A549, no * mark (incubation time not given)): > 10 µM; IC50 (HT-29 cells; Homo sapiens, HT-29, no * mark (incubation time not given)): 2.94 µM; necrosis compared to control (MIAPaCa-2 cells [4]; MiaPaca-2): did not cause necrosis; apoptosis (early and late) compared to control (MIAPaCa-2 cells [4]; MiaPaca-2, IC50 values): increase in apoptosis at IC50 values was statistically significant; IC50 (HUVEC cells; Homo sapiens, HUVEC, no * mark (incubation time not given)): 2.94 µM; IC50 (MDA-MB-231 cells; Homo sapiens, MDA-MB-231, read-out: IC50, MDA-MB-231 (breast)): > 10 µM; IC50 (CAKI-1 cells; Homo sapiens, CAKI-1, no * mark (incubation time not given)): 5.13 µM; IC50 (MCF-7 cells; Homo sapiens, MCF7, no * mark (incubation time not given)): 9.78 µM; necrosis compared to control (A498 cells [5]): no increase or decrease; viability, early apoptosis and late apoptosis compared to control (A498 cells [5]; Y3 at IC50, sunitinib malate 10 μM): 10 μM dose is found to be the most significant; IC50 (HCT-116 cells; Homo sapiens, HCT-116, no * mark (incubation time not given)): 1.78 µM; IC50 (A498 cells [2]; Homo sapiens, A498, 72 h, *: effective 72 hours after incubation): 3.46 µM; IC50 (A498 cells [2]; no * mark (incubation time not specified), listed as sunitinib malate): > 10 µM; IC50 (MIAPaCa-2 cells [3]; Homo sapiens, MIA PaCa-2, 72 h, MTT, *: effective 72 hours after incubation): 4.03 µM; IC50 (MIAPaCa-2 cells [3]; Homo sapiens, MIA PaCa-2, MTT, no * mark (incubation time not given)): 0.61 µM
Cn1cc(/C=C2\C(=O)N(Cc3ccccc3)c3ccc(Cl)cc32)c2ccccc21 [Y23] | > 10 µM | 4.18 µM |  |  | 4.18 µM | 4.72 µM | 4.9 µM | 1.62 µM | > 10 µM | > 11.23 | 4.70 |  | 4.98 µM | 0.89 µM | general tyrosine kinase activity compared to control [6]: did not cause a significant change; selectivity index (A498 cells [2]; MCF-10F/Beas2b vs A498): > 11
